# Data published in patent US10336762B2 (priority 2017, dated 2019).
# Tests used:
# TNFα = test: cells; format: cell-based, human; conditions: Homo sapiens, Monocyte, LPS-stimulated human monocytes, TNFα content; read-out: EC50 TNF
# IRAK4 enzyme = IRAK4 enzyme (Homo sapiens (Human), UniProt Q9NWZ3); test: biochemical; format: biochemical; conditions: IRAK4 enzyme, TR-FRET, 500 μM ATP
# Sequence of IRAK4 enzyme (Q9NWZ3 whole entry): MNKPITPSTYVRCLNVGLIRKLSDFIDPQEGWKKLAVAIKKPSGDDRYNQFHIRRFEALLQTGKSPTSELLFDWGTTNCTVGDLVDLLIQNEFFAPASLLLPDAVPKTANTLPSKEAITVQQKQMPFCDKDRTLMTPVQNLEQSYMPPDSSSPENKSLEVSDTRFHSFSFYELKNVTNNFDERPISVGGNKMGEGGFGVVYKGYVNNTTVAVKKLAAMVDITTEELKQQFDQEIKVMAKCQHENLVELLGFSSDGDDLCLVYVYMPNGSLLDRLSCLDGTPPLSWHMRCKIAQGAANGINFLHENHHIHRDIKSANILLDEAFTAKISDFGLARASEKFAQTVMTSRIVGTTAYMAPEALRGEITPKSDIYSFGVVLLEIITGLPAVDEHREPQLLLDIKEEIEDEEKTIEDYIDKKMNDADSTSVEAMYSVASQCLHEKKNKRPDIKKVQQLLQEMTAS
smiles,measurement,setting,value
"CC(C)(O)[C@H](F)CNC(=O)c1cnc(-c2ccc3cc(C#N)cnn23)cc1NC1CC2(CCC2)C1 [Example 99, (R)-6-(3-cyanopyrrolo[1,2-b]pyridazin-7-yl)-N-(2-fluoro-3-hydroxy-3-methylbutyl)-4-(spiro[3.3]heptan-2-ylamino)nicotinamide]",EC50,TNFα,130 nM
same,IC50,IRAK4 enzyme,1 nM
"COCCNc1cc(-c2ccc3cc(C#N)cnn23)ncc1C(=O)NC[C@@H](F)C(C)(C)O [Example 100, (R)-6-(3-cyanopyrrolo[1,2-b]pyridazin-7-yl)-N-(2-fluoro-3-hydroxy-3-methylbutyl)-4-((2-methoxyethyl)amino) nicotinamide]",EC50,TNFα,195 nM
same,IC50,IRAK4 enzyme,4 nM
"CC(C)(O)[C@H](F)CNC(=O)c1cnc(-c2ccc3cc(C#N)cnn23)cc1N[C@H]1C[C@@H]2CC[C@H]1C2 [Example 101, 4-(((1S,2S,4R)-bicyclo[2.2.1]heptan-2-yl)amino)-6-(3-cyanopyrrolo[1,2-b]pyridazin-7-yl)-N-((R)-2-fluoro-3-hydroxy-3-methylbutyl) nicotinamide]",EC50,TNFα,82 nM
same,IC50,IRAK4 enzyme,< 1 nM
"CC(C)(O)[C@H](F)CNC(=O)c1cnc(-c2ccc3cc(C#N)cnn23)cc1NCCCS(C)(=O)=O [Example 103, (R)-6-(3-cyanopyrrolo[1,2-b]pyridazin-7-yl)-N-(2-fluoro-3-hydroxy-3-methylbutyl)-4-((3-(methylsulfonyl)propyl)amino)nicotinamide]",EC50,TNFα,75 nM
same,IC50,IRAK4 enzyme,< 1 nM
"Cn1cc(CNc2cc(-c3ccc4cc(C#N)cnn34)ncc2C(=O)NC[C@@H](F)C(C)(C)O)cn1 [Example 104, (R)-6-(3-cyanopyrrolo[1,2-b]pyridazin-7-yl)-N-(2-fluoro-3-hydroxy-3-methylbutyl)-4-(((1-methyl-1H-pyrazol-4-yl)methyl)amino) nicotinamide]",EC50,TNFα,274 nM
same,IC50,IRAK4 enzyme,6 nM
"CC(C)(O)[C@H](F)CNC(=O)c1cnc(-c2ccc3cc(C#N)cnn23)cc1NCc1c[nH]cn1 [Example 105, (R)-4-(((1H-imidazol-4-yl)methyl)amino)-6-(3-cyanopyrrolo[1,2-b]pyridazin-7-yl)-N-(2-fluoro-3-hydroxy-3-methylbutyl)nicotinamide]",EC50,TNFα,3160 nM
same,IC50,IRAK4 enzyme,9 nM
"CC(C)(O)[C@H](F)CNC(=O)c1cnc(-c2ccc3cc(C#N)cnn23)cc1NC[C@H]1CCC(=O)N1 [Example 106, 6-(3-cyanopyrrolo[1,2-b]pyridazin-7-yl)-N-((R)-2-fluoro-3-hydroxy-3-methylbutyl)-4-((((R)-5-oxopyrrolidin-2-yl)methyl)amino) nicotinamide]",EC50,TNFα,1380 nM
same,IC50,IRAK4 enzyme,3 nM
"Cc1noc(C)c1CNc1cc(-c2ccc3cc(C#N)cnn23)ncc1C(=O)NC[C@@H](F)C(C)(C)O [Example 107, (R)-6-(3-cyanopyrrolo[1,2-b]pyridazin-7-yl)-4-(((3,5-dimethylisoxazol-4-yl)methyl)amino)-N-(2-fluoro-3-hydroxy-3-methylbutyl) nicotinamide]",EC50,TNFα,961 nM
same,IC50,IRAK4 enzyme,17 nM
"CNC(=O)[C@H](C)Nc1cc(-c2ccc3cc(C#N)cnn23)ncc1C(=O)NC[C@@H](F)C(C)(C)O [Example 108, 6-(3-cyanopyrrolo[1,2-b]pyridazin-7-yl)-N-((R)-2-fluoro-3-hydroxy-3-methylbutyl)-4-(((S)-1-(methylamino)-1-oxopropan-2-yl)amino) nicotinamide]",EC50,TNFα,> 10000 nM
same,IC50,IRAK4 enzyme,88 nM
"CC(C)(O)[C@H](F)CNC(=O)c1cnc(-c2ccc3cc(C#N)cnn23)cc1N[C@H]1CCN(C2COC2)C1 [Example 110, 6-(3-cyanopyrrolo[1,2-b]pyridazin-7-yl)-N-((R)-2-fluoro-3-hydroxy-3-methylbutyl)-4-(((S)-1-(oxetan-3-yl)pyrrolidin-3-yl)amino) nicotinamide]",EC50,TNFα,191 nM
same,IC50,IRAK4 enzyme,4 nM
"COCC1(Nc2cc(-c3ccc4cc(C#N)cnn34)ncc2C(=O)NC[C@@H](F)C(C)(C)O)CC1 [Example 112, (R)-6-(3-cyano-pyrrolo[1,2-b]pyridazin-7-yl)-N-(2-fluoro-3-hydroxy-3-methylbutyl)-4-((1-(methoxymethyl)cyclopropyl)amino)nicotinanide]",EC50,TNFα,399 nM
same,IC50,IRAK4 enzyme,4 nM
"CC(C)(O)[C@H](F)CNC(=O)c1cnc(-c2ccc3cc(C#N)cnn23)cc1N[C@H]1C[C@@H]2C[C@H]1CN2S(C)(=O)=O [Example 113, 6-(3-cyanopyrrolo[1,2-b]pyridazin-7-yl)-N-((R)-2-fluoro-3-hydroxy-3-methylbutyl)-4-(((1S,4S,5S)-2-(methylsulfonyl)-2-azabicyclo[2.2.1]heptan-5-yl)amino)nicotinamide]",EC50,TNFα,3670 nM
same,IC50,IRAK4 enzyme,22 nM
"CN1CCC(Nc2cc(-c3ccc4cc(C#N)cnn34)ncc2C(=O)NC[C@@H](F)C(C)(C)O)CC1 [Example 114, (R)-6-(3-cyanopyrrolo[1,2-b]pyridazin-7-yl)-N-(2-fluoro-3-hydroxy-3-methylbutyl)-4-((1-methylpiperidin-4-yl)amino)nicotinamide]",EC50,TNFα,177 nM
same,IC50,IRAK4 enzyme,4 nM
"CC(C)(O)[C@H](F)CNC(=O)c1cnc(-c2ccc3cc(C#N)cnn23)cc1NC1CCN(C2CC2)CC1 [Example 115, (R)-6-(3-cyanopyrrolo[1,2-b]pyridazin-7-yl)-4-((1-cyclopropylpiperidin-4-yl)amino)-N-(2-fluoro-3-hydroxy-3-methylbutyl)nicotinamide]",EC50,TNFα,196 nM
same,IC50,IRAK4 enzyme,4 nM
"CC(C)Nc1cc(-c2ccc3cc(C#N)cnn23)ncc1C(=O)NCC(F)(F)C(C)(C)O [Example 116, 6-(3-cyanopyrrolo[1,2-b]pyridazin-7-yl)-N-(2,2-difluoro-3-hydroxy-3-methylbutyl)-4-(isopropylamino) nicotinamide]",EC50,TNFα,98 nM
same,IC50,IRAK4 enzyme,< 1 nM
"CC(C)(O)[C@H](F)CNC(=O)c1cnc(-c2ccc3cc(C#N)cnn23)cc1NC1CCC1 [Example 117, (R)-6-(3-cyanopyrrolo[1,2-b]pyridazin-7-yl)-4-(cyclobutyl-amino)-N-(2-fluoro-3-hydroxy-3-methylbutyl) nicotinamide]",EC50,TNFα,47 nM
same,IC50,IRAK4 enzyme,< 1 nM
"CC1(Nc2cc(-c3ccc4cc(C#N)cnn34)ncc2C(=O)NC[C@@H](F)C(C)(C)O)CC1 [Example 118, (R)-6-(3-cyanopyrrolo[1,2-b]pyridazin-7-yl)-N-(2-fluoro-3-hydroxy-3-methylbutyl)-4-((1-methylcyclopropyl)amino) nicotinamide]",EC50,TNFα,25 nM
same,IC50,IRAK4 enzyme,< 1 nM
"COCCn1cc(Nc2cc(-c3ccc4cc(C#N)cnn34)ncc2C(=O)NC[C@@H](F)C(C)(C)O)cn1 [Example 119, (R)-6-(3-cyanopyrrolo[1,2-b]pyridazin-7-yl)-N-(2-fluoro-3-hydroxy-3-methylbutyl)-4-((1-(2-methoxyethyl)-1H-pyrazol-4-yl)amino) nicotinamide]",EC50,TNFα,32 nM
same,IC50,IRAK4 enzyme,< 1 nM
"CC(C)Nc1cc(-c2ccc3cc(C#N)cnn23)ncc1C(=O)N[C@H]1C[C@@](C)(O)C1 [Example 120, 6-(3-cyanopyrrolo[1,2-b]pyridazin-7-yl)-N-((1s,3s)-3-hydroxy-3-methylcyclobutyl)-4-(isopropylamino) nicotinamide]",EC50,TNFα,430 nM
same,IC50,IRAK4 enzyme,8 nM
"CC(C)Nc1cc(-c2ccc3cc(C#N)cnn23)ncc1C(=O)NCC1CCS(=O)(=O)CC1 [Example 121, 6-(3-cyanopyrrolo[1,2-b]pyridazin-7-yl)-N-((1,1-dioxidotetrahydro-2H-thiopyran-4-yl)methyl)-4-(isopropylamino) nicotinamide]",EC50,TNFα,365 nM
same,IC50,IRAK4 enzyme,7 nM
"CC(C)Nc1cc(-c2ccc3cc(C#N)cnn23)ncc1C(=O)NCC1(O)CCS(=O)(=O)C1 (stereo not drawn) [Example 122, 6-(3-cyanopyrrolo[1,2-b]pyridazin-7-yl)-N-((3-hydroxy-1,1-dioxidotetrahydrothiophen-3-yl)methyl)-4-(isopropylamino)nicotinamide]",EC50,TNFα,867 nM
same,IC50,IRAK4 enzyme,17 nM
"CC(C)Nc1cc(-c2ccc3cc(C#N)cnn23)ncc1C(=O)NC1CCS(=O)(=O)C1 (stereo not drawn) [Example 123, 6-(3-cyanopyrrolo[1,2-b]pyridazin-7-yl)-N-(1,1-dioxidotetrahydrothiophen-3-yl)-4-(isopropylamino) nicotinamide]",EC50,TNFα,421 nM
same,IC50,IRAK4 enzyme,6 nM
"CC(=O)N[C@H]1C[C@H](NC(=O)c2cnc(-c3ccc4cc(C#N)cnn34)cc2NC(C)C)C1 [Example 124, N-((1r,3r)-3-acetamido-cyclobutyl)-6-(3-cyano-pyrrolo[1,2-b]pyridazin-7-yl)-4-(isopropylamino) nicotinamide]",EC50,TNFα,182 nM
same,IC50,IRAK4 enzyme,3 nM
"CC(C)Nc1cc(-c2ccc3cc(C#N)cnn23)ncc1C(=O)N[C@H]1CC[C@H](NC(=O)C2CC2)CC1 [Example 125, 6-(3-cyanopyrrolo[1,2-b]pyridazin-7-yl)-N-((1r,4r)-4-(cyclopropane-carboxamido)cyclohexyl)-4-(isopropyl-amino)nicotinamide]",EC50,TNFα,114 nM
same,IC50,IRAK4 enzyme,1 nM
"CC(C)Nc1cc(-c2ccc3cc(C#N)cnn23)ncc1C(=O)N[C@H]1CC[C@H](NC(=O)N2CCOCC2)CC1 [Example 126, N-((1r,4r)-4-(6-(3-cyano-pyrrolo[1,2-b]pyridazin-7-yl)-4-(isopropylamino)nicotinamido)cyclohexyl) morpholine-4-carboxamide]",EC50,TNFα,92 nM
same,IC50,IRAK4 enzyme,1 nM
"CC(C)Nc1cc(-c2ccc3cc(C#N)cnn23)ncc1C(=O)N[C@H]1CC[C@H](NC(=O)C(F)(F)F)CC1 [Example 127, 6-(3-cyanopyrrolo[1,2-b]pyridazin-7-yl)-4-(isopropyl-amino)-N-((1r,4r)-4-(2,2,2-trifluoroacetamido)cyclohexyl)nicotinamide]",EC50,TNFα,112 nM
same,IC50,IRAK4 enzyme,< 1 nM
"CCn1cnc(Nc2cc(-c3ccc4cc(C#N)cnn34)ncc2C(=O)NC[C@@H](F)C(C)(C)O)n1 [Example 128, (R)-6-(3-cyanopyrrolo[1,2-b]pyridazin-7-yl)-4-((1-ethyl-1H-1,2,4-triazol-3-yl)amino)-N-(2-fluoro-3-hydroxy-3-methylbutyl)nicotinamide]",EC50,TNFα,141 nM
same,IC50,IRAK4 enzyme,1 nM
